Key:
Mannheimia haemolytica = experiment: minimum inhibitory concentration (MIC)
Experimental: (§1)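 Broth microdilution MIC (Sensititre BOPO7F bovine plate, CLSI methods) of 19 antimicrobials against field isolates of P. multocida, M. haemolytica, H. somni (deep nasopharyngeal swabs) and E. coli, Enterococcus spp. (rectal swabs) from weaned dairy heifers. Incubation 16-24 h at 35 C. MIC is the lowest concentration preventing visible growth. Values with <= or > lie at the tested range limits. Trimethoprim-sulfamethoxazole is given as the trimethoprim component of a 1:19 mixture.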

Enterococcus spp. = experiment: minimum inhibitory concentration (MIC)
Experimental: as §1

[1] = isolate (source animal id): 122
[2] = isolate (source animal id): 123
[3] = isolate (source animal id): 133
[4] = isolate (source animal id): 171
[5] = isolate (source animal id): 183
[6] = isolate (source animal id): 187
[7] = isolate (source animal id): 190
[8] = isolate (source animal id): 211
[9] = isolate (source animal id): 223
[10] = isolate (source animal id): 241
[11] = isolate (source animal id): 252
[12] = isolate (source animal id): 282
[13] = isolate (source animal id): 298
[14] = isolate (source animal id): 320
[15] = isolate (source animal id): 333

Measured: minimum inhibitory concentration

CN[C@@H]1[C@H](O)[C@H](NC)[C@H]2O[C@@]3(O)C(=O)C[C@@H](C)O[C@H]3O[C@@H]2[C@H]1O [Spectinomycin]
> 64 µg/mL: Mannheimia haemolytica; isolate (source animal id): 28 | Mannheimia haemolytica; isolate (source animal id): 31 | Mannheimia haemolytica; isolate (source animal id): 57 | Mannheimia haemolytica; isolate (source animal id): 100 | Mannheimia haemolytica; isolate (source animal id): 108 | Mannheimia haemolytica; isolate (source animal id): 113 | Mannheimia haemolytica; [2] | Mannheimia haemolytica; isolate (source animal id): 135 | Mannheimia haemolytica; isolate (source animal id): 141 | Mannheimia haemolytica; isolate (source animal id): 253 | Mannheimia haemolytica; isolate (source animal id): 260 | Enterococcus spp.; isolate (source animal id): 35 | Enterococcus spp.; [1] | Enterococcus spp.; isolate (source animal id): 285
64 µg/mL: Enterococcus spp.; isolate (source animal id): 2 | Enterococcus spp.; isolate (source animal id): 42 | Enterococcus spp.; isolate (source animal id): 44 | Enterococcus spp.; isolate (source animal id): 79 | Enterococcus spp.; [2] | Enterococcus spp.; [3] | Enterococcus spp.; isolate (source animal id): 158 | Enterococcus spp.; isolate (source animal id): 168 | Enterococcus spp.; isolate (source animal id): 169 | Enterococcus spp.; [4] | Enterococcus spp.; isolate (source animal id): 175 | Enterococcus spp.; isolate (source animal id): 177 | Enterococcus spp.; isolate (source animal id): 181 | Enterococcus spp.; isolate (source animal id): 182 | Enterococcus spp.; [5] | Enterococcus spp.; [6] | Enterococcus spp.; [7] | Enterococcus spp.; isolate (source animal id): 194 | Enterococcus spp.; isolate (source animal id): 195 | Enterococcus spp.; isolate (source animal id): 197 | Enterococcus spp.; [8] | Enterococcus spp.; isolate (source animal id): 214 | Enterococcus spp.; isolate (source animal id): 222 | Enterococcus spp.; [9] | Enterococcus spp.; isolate (source animal id): 228 | Enterococcus spp.; isolate (source animal id): 230 | Enterococcus spp.; isolate (source animal id): 235 | Enterococcus spp.; isolate (source animal id): 236 | Enterococcus spp.; isolate (source animal id): 239 | Enterococcus spp.; [10] | Enterococcus spp.; isolate (source animal id): 244 | Enterococcus spp.; isolate (source animal id): 246 | Enterococcus spp.; isolate (source animal id): 247 | Enterococcus spp.; isolate (source animal id): 250 | Enterococcus spp.; [11] | Enterococcus spp.; isolate (source animal id): 289 | Enterococcus spp.; isolate (source animal id): 290 | Enterococcus spp.; isolate (source animal id): 296 | Enterococcus spp.; [13] | Enterococcus spp.; isolate (source animal id): 310 | Enterococcus spp.; [14] | Enterococcus spp.; isolate (source animal id): 331 | Enterococcus spp.; [15] | Enterococcus spp.; isolate (source animal id): 341
≤ 8 µg/mL: Mannheimia haemolytica; [9]
32 µg/mL: Mannheimia haemolytica; isolate (source animal id): 8 | Mannheimia haemolytica; isolate (source animal id): 13 | Mannheimia haemolytica; isolate (source animal id): 18 | Mannheimia haemolytica; isolate (source animal id): 21 | Mannheimia haemolytica; isolate (source animal id): 25 | Mannheimia haemolytica; isolate (source animal id): 27 | Mannheimia haemolytica; isolate (source animal id): 30 | Mannheimia haemolytica; isolate (source animal id): 32 | Mannheimia haemolytica; isolate (source animal id): 34 | Mannheimia haemolytica; isolate (source animal id): 36 | Mannheimia haemolytica; isolate (source animal id): 37 | Mannheimia haemolytica; isolate (source animal id): 40 | Mannheimia haemolytica; isolate (source animal id): 41 | Mannheimia haemolytica; isolate (source animal id): 43 | Mannheimia haemolytica; isolate (source animal id): 46 | Mannheimia haemolytica; isolate (source animal id): 49 | Mannheimia haemolytica; isolate (source animal id): 50 | Mannheimia haemolytica; isolate (source animal id): 51 | Mannheimia haemolytica; isolate (source animal id): 52 | Mannheimia haemolytica; isolate (source animal id): 53 | Mannheimia haemolytica; isolate (source animal id): 55 | Mannheimia haemolytica; isolate (source animal id): 56 | Mannheimia haemolytica; isolate (source animal id): 103 | Mannheimia haemolytica; isolate (source animal id): 107 | Mannheimia haemolytica; isolate (source animal id): 112 | Mannheimia haemolytica; isolate (source animal id): 121 | Mannheimia haemolytica; [1] | Mannheimia haemolytica; isolate (source animal id): 126 | Mannheimia haemolytica; [3] | Mannheimia haemolytica; isolate (source animal id): 138 | Mannheimia haemolytica; isolate (source animal id): 142 | Mannheimia haemolytica; isolate (source animal id): 149 | Mannheimia haemolytica; isolate (source animal id): 151 | Mannheimia haemolytica; isolate (source animal id): 154 | Mannheimia haemolytica; isolate (source animal id): 170 | Mannheimia haemolytica; [4] | Mannheimia haemolytica; isolate (source animal id): 172 | Mannheimia haemolytica; isolate (source animal id): 173 | Mannheimia haemolytica; isolate (source animal id): 179 | Mannheimia haemolytica; isolate (source animal id): 180 | Mannheimia haemolytica; [5] | Mannheimia haemolytica; isolate (source animal id): 186 | Mannheimia haemolytica; [6] | Mannheimia haemolytica; isolate (source animal id): 188 | Mannheimia haemolytica; [7] | Mannheimia haemolytica; isolate (source animal id): 191 | Mannheimia haemolytica; isolate (source animal id): 192 | Mannheimia haemolytica; isolate (source animal id): 201 | Mannheimia haemolytica; isolate (source animal id): 202 | Mannheimia haemolytica; isolate (source animal id): 209 | Mannheimia haemolytica; [8] | Mannheimia haemolytica; isolate (source animal id): 220 | Mannheimia haemolytica; isolate (source animal id): 221 | Mannheimia haemolytica; isolate (source animal id): 233 | Mannheimia haemolytica; isolate (source animal id): 237 | Mannheimia haemolytica; [10] | Mannheimia haemolytica; [11] | Mannheimia haemolytica; isolate (source animal id): 259 | Mannheimia haemolytica; isolate (source animal id): 262 | Mannheimia haemolytica; [12] | Mannheimia haemolytica; isolate (source animal id): 287 | Mannheimia haemolytica; isolate (source animal id): 288 | Mannheimia haemolytica; isolate (source animal id): 291 | Mannheimia haemolytica; isolate (source animal id): 299 | Mannheimia haemolytica; isolate (source animal id): 300 | Mannheimia haemolytica; isolate (source animal id): 302 | Mannheimia haemolytica; isolate (source animal id): 304 | Mannheimia haemolytica; isolate (source animal id): 306 | Mannheimia haemolytica; isolate (source animal id): 308 | Mannheimia haemolytica; isolate (source animal id): 309 | Mannheimia haemolytica; [14] | Mannheimia haemolytica; isolate (source animal id): 323 | Enterococcus spp.; isolate (source animal id): 88 | Enterococcus spp.; isolate (source animal id): 91 | Enterococcus spp.; isolate (source animal id): 111 | Enterococcus spp.; isolate (source animal id): 268 | Enterococcus spp.; isolate (source animal id): 301
16 µg/mL: Mannheimia haemolytica; isolate (source animal id): 145 | Mannheimia haemolytica; isolate (source animal id): 152 | Mannheimia haemolytica; isolate (source animal id): 159 | Mannheimia haemolytica; isolate (source animal id): 162 | Mannheimia haemolytica; isolate (source animal id): 293 | Mannheimia haemolytica; [13] | Mannheimia haemolytica; isolate (source animal id): 313 | Mannheimia haemolytica; isolate (source animal id): 318 | Mannheimia haemolytica; isolate (source animal id): 321 | Mannheimia haemolytica; isolate (source animal id): 324 | Mannheimia haemolytica; isolate (source animal id): 326 | Mannheimia haemolytica; isolate (source animal id): 328 | Mannheimia haemolytica; isolate (source animal id): 329 | Mannheimia haemolytica; [15] | Mannheimia haemolytica; isolate (source animal id): 335 | Mannheimia haemolytica; isolate (source animal id): 338 | Enterococcus spp.; isolate (source animal id): 92 | Enterococcus spp.; [12]
